These results are taken from US4963581A, “Naphthopyran derivatives and use thereof” (Takeda Chemical Industries, Ltd., priority 1988, dated 1990).

Series [1] relates to various enzymes involved in the biosynthesis of steroid hormones. The note with it: background statement in words; cited from earlier work.
The subject of series [2] is estrogen synthesis. In words: Estrogen synthesis inhibition in rats (PMSG-stimulated). In kind it is in vivo, young SD rats. The note with it: Test I, 100 mg/kg/day s.c., 4 days, Mean ± SD.
The test system of series [3] is estrogen synthesis. Described as above. The note with it: 100 mg/kg/day s.c., 4 days, Mean ± SD. In kind it is in vivo, young SD rats. How it is done:
Groups of five young SD rats ([…], 19 days old) were used. Test groups were administered subcutaneously with the test compounds suspended in 0.2% gum arabic-containing physiological saline in a dose of 25 mg/kg or 50 mg/kg at 24-hour intervals for consecutive 4 days. Non-test groups (control groups […]) were administered with 0.2 ml of 0.2% gum arabic-containing physiological saline. On the third day after initiation of the test, a single dose of pregnant mare serum gonadotropin (PMSG) was administered subcutaneously in a dose of 10 U/rat to the test groups and to the control group 2, following the administration of the test compounds. […] The plasma samples thus obtained were subjected to plasma estradiol-17B level determination by radioimmunoassay. The uterus and ovaries were excised from each rat and, after removal of superfluous connective tissues, weighed. The results thus obtained are shown in Table 2.4-Hydroxyandrostenedione (4-OHA) was used as a reference compound for the pharmacological effect evaluation.
*P < 0.05, **P < 0.02, ***P < 0.01, ****<0.001 against PMSG group

Take `CCC1(c2ccc(N)cc2)CCC(=O)NC1=O` (stereo not shown) [Aminoglutethimide]: the “inhibition of various enzymes involved in the biosynthesis of steroid hormones” value in series [1] was “inhibits various enzymes involved in the biosynthesis of steroid hormones”.

In the case of `C[C@]12CCC(=O)C(O)=C1CC[C@@H]1[C@@H]2CC[C@]2(C)C(=O)CC[C@@H]12` [Compound 4-OHA, 4-Hydroxyandrostenedione, reference compound], the Body weight gain in the series on estrogen synthesis [2] is recorded as 25.0 ± 1.6 g; in the series on estrogen synthesis [3] (Test II), 22.8 ± 1.5 g; in the series with estrogen synthesis [3] (Test III), 24.8 ± 0.8 g. The “Tissue weight, Ovaries” value with estrogen synthesis [3] (Test I) is given as 24.3 ± 4.5 mg; in the series on estrogen synthesis [3] (Test II), 22.3 ± 3.3 mg; in the series on estrogen synthesis [3] (Test III) it was 26.3 ± 1.7 mg. Also, the figures for the “Tissue weight, Uterus” value in the series with estrogen synthesis [3] (Test I), with estrogen synthesis [3] (Test II) and in the series with estrogen synthesis [3] (Test III) were 60.6 ± 9.0 mg, 61.5 ± 8.2 mg and 71.9 ± 8.6 mg, respectively. The “Plasma estradiol-17β level” value in the series on estrogen synthesis [3] (Test I, PMSG control 568.6 ± 69.7) came to 115.5 ± 47.4 pg/mL; in the series on estrogen synthesis [3] (Test II, PMSG control 240.0 ± 34.9), 36.1 ± 33.0 pg/mL; in the series on estrogen synthesis [3] (Test III, PMSG control 327.9 ± 126.6), 52.3 ± 21.7 pg/mL.
